Numbers after ± are expanded uncertainties.
Conditions: for surface tension liquid-gas: Ring tensiometer; for mass density: 101.33 kPa, Liquid

| Structure (SMILES) | surface tension liquid-gas (293.15 K) [mN/m] | mass density (293.15 K) [kg/m3] | surface tension liquid-gas (298.15 K) [mN/m] | mass density (298.15 K) [kg/m3] | surface tension liquid-gas (303.15 K) [mN/m] | surface tension liquid-gas (308.15 K) [mN/m] | surface tension liquid-gas (313.15 K) [mN/m] | surface tension liquid-gas (318.15 K) [mN/m] | mass density (318.15 K) [kg/m3] | surface tension liquid-gas (323.15 K) [mN/m] |
| --- | --- | --- | --- | --- | --- | --- | --- | --- | --- | --- |
| CCCCCO [pentan-1-ol] | 25.69 ± 0.46 | 815.3 ± 1 | 25.29 ± 0.45 | 811.6 ± 1 | 24.86 ± 0.44 | 24.49 ± 0.44 | 24.06 ± 0.43 | 23.67 ± 0.42 | 796.6 ± 1 | 23.3 ± 0.42 |
| CCCO [propan-1-ol] | 23.73 ± 0.37 | 803.1 ± 0.7 | 23.3 ± 0.37 | 799.3 ± 0.7 | 22.9 ± 0.36 | 22.52 ± 0.36 | 22.1 ± 0.35 | 21.68 ± 0.35 | 783.2 ± 0.7 | 21.27 ± 0.34 |

The remaining lines, values ahead:

| surface tension liquid-gas (293.15 K) [mN/m] | mass density (293.15 K) [kg/m3] | surface tension liquid-gas (298.15 K) [mN/m] | mass density (298.15 K) [kg/m3] | surface tension liquid-gas (303.15 K) [mN/m] | surface tension liquid-gas (308.15 K) [mN/m] | surface tension liquid-gas (313.15 K) [mN/m] | surface tension liquid-gas (318.15 K) [mN/m] | mass density (318.15 K) [kg/m3] | surface tension liquid-gas (323.15 K) [mN/m] | Structure (SMILES) |
| --- | --- | --- | --- | --- | --- | --- | --- | --- | --- | --- |
| 23.18 ± 0.35 | 807.1 ± 0.6 | 22.74 ± 0.34 | 802.9 ± 0.6 | 22.38 ± 0.34 | 21.94 ± 0.33 | 21.56 ± 0.33 | 21.11 ± 0.32 | 785.5 ± 0.6 | 20.76 ± 0.32 | CCC(C)O (stereo not given) [butan-2-ol] |
| 23.7 ± 0.43 | 809.8 ± 1 | 23.28 ± 0.42 | 805.7 ± 1 | 22.87 ± 0.41 | 22.43 ± 0.41 | 22.04 ± 0.4 | 21.6 ± 0.39 | 788.8 ± 1 | 21.16 ± 0.39 | CCCC(C)O (stereo not given) [pentan-2-ol] |
| 21.3 ± 0.34 | 785.1 ± 0.7 | 20.95 ± 0.34 | 780.9 ± 0.8 | 20.55 ± 0.33 | 20.2 ± 0.33 | 19.83 ± 0.32 | 19.47 ± 0.32 | 763.3 ± 0.8 | 19.09 ± 0.31 | CC(C)O [propan-2-ol] |
